Laboratory results taken from ChEMBL document CHEMBL3885881, “DrugMatrix”.

Experiments:
Rattus norvegicus [1] = species: Rattus norvegicus; experiment: DrugMatrix - Regimen: Daily Repeat; type: toxicity, organism-based, Sprague-Dawley; design: regimen Daily Repeat, gender Male, age 6-8 weeks; conditions: in vivo, po, 500 mg/kg, route oral GAVAGE, dose level High, vehicle .5 % CMC; for ABSOLUTE BASOPHIL / ABSOLUTE EOSINOPHIL / ABSOLUTE LYMPHOCYTE / ABSOLUTE MONOCYTE / ABSOLUTE SEGMENTED NEUTROPHIL / BASOPHIL / EOSINOPHIL / ERYTHROCYTE COUNT / HEMATOCRIT / HEMOGLOBIN / LEUKOCYTE COUNT / LYMPHOCYTE / MEAN CORPUSCULAR HEMOGLOBIN / MEAN CORPUSCULAR HEMOGLOBIN CONCENTRATION / MEAN CORPUSCULAR VOLUME / MONOCYTE / NEUTROPHIL / NUCLEATED RED BLOOD CELLS / PLATELET COUNT: tissue Blood; for ALANINE AMINOTRANSFERASE / ALBUMIN / ALKALINE PHOSPHATASE / ASPARTATE AMINOTRANSFERASE / BLOOD UREA NITROGEN / CARBON DIOXIDE / CHLORIDE / CHOLESTEROL / CREATININE / GLUCOSE / LACTATE DEHYDROGENASE / LIPASE / PHOSPHORUS / POTASSIUM / SODIUM / TOTAL BILIRUBIN / TOTAL PROTEIN / URIC ACID: tissue Plasma
Rattus norvegicus [2] = species: Rattus norvegicus; type: toxicity, organism-based, Sprague-Dawley; conditions: in vivo, po, 500 mg/kg, 24 h, route oral GAVAGE, dose level High, time 1 day, vehicle .5 % CMC
Description: DrugMatrix - Regimen: Single

## Clc1ccccc1 [CHLOROBENZENE]
Rattus norvegicus [1]; 72 h, time 3 day
  ABSOLUTE BASOPHIL: 0 CELLS/uL
  ABSOLUTE EOSINOPHIL: 274.33 CELLS/uL
  ABSOLUTE LYMPHOCYTE: 9310 CELLS/uL
  ABSOLUTE MONOCYTE: 211.33 CELLS/uL
  ABSOLUTE SEGMENTED NEUTROPHIL: 771 CELLS/uL
  BASOPHIL: 0%
  EOSINOPHIL: 2.33%
  ERYTHROCYTE COUNT: 6.63 x10E6/uL
  HEMATOCRIT: 39.23%
  HEMOGLOBIN: 14.07 G/DL
  LEUKOCYTE COUNT: 10.57 x10E3/uL
  LYMPHOCYTE: 88.33%
  MEAN CORPUSCULAR HEMOGLOBIN: 21.2 pg
  MEAN CORPUSCULAR HEMOGLOBIN CONCENTRATION: 35.9 G/DL
  MEAN CORPUSCULAR VOLUME: 59.17 fL
  MONOCYTE: 2%
  NEUTROPHIL: 7.33%
  NUCLEATED RED BLOOD CELLS: 0 /100WBC
  PLATELET COUNT: 768.67 x10E3/uL
  ALANINE AMINOTRANSFERASE: 64 u/L
  ALBUMIN: 4.1 G/DL
  ALKALINE PHOSPHATASE: 361.67 u/L
  ASPARTATE AMINOTRANSFERASE: 100.33 u/L
  BLOOD UREA NITROGEN: 17.67 mg/dL
  CARBON DIOXIDE: 26.33 mmol/L
  CHLORIDE: 103.33 MEQ/L
  CHOLESTEROL: 86.67 mg/dL
  CREATININE: 0.21 mg/dL
  GLUCOSE: 184.33 mg/dL
  LACTATE DEHYDROGENASE: 325.33 u/L
  LIPASE: 9.67 u/L
  PHOSPHORUS: 14.17 mg/dL
  POTASSIUM: 5.77 MEQ/L
  SODIUM: 147.63 MEQ/L
  TOTAL BILIRUBIN: 0.17 mg/dL
  TOTAL PROTEIN: 5.83 G/DL
  URIC ACID: 2.13 mg/dL
Rattus norvegicus [1]; 120 h, time 5 day
  ABSOLUTE BASOPHIL: 0 CELLS/uL
  ABSOLUTE EOSINOPHIL: 83.67 CELLS/uL
  ABSOLUTE LYMPHOCYTE: 5790.33 CELLS/uL
  ABSOLUTE MONOCYTE: 83 CELLS/uL
  ABSOLUTE SEGMENTED NEUTROPHIL: 376.33 CELLS/uL
  BASOPHIL: 0%
  EOSINOPHIL: 1.33%
  ERYTHROCYTE COUNT: 6.34 x10E6/uL
  HEMATOCRIT: 37.73%
  HEMOGLOBIN: 13.57 G/DL
  LEUKOCYTE COUNT: 6.33 x10E3/uL
  LYMPHOCYTE: 91.33%
  MEAN CORPUSCULAR HEMOGLOBIN: 21.37 pg
  MEAN CORPUSCULAR HEMOGLOBIN CONCENTRATION: 35.9 G/DL
  MEAN CORPUSCULAR VOLUME: 59.6 fL
  MONOCYTE: 1.33%
  NEUTROPHIL: 6%
  NUCLEATED RED BLOOD CELLS: 0 /100WBC
  PLATELET COUNT: 998.67 x10E3/uL
  ALANINE AMINOTRANSFERASE: 58 u/L
  ALBUMIN: 4.13 G/DL
  ALKALINE PHOSPHATASE: 325 u/L
  ASPARTATE AMINOTRANSFERASE: 91 u/L
  BLOOD UREA NITROGEN: 16 mg/dL
  CARBON DIOXIDE: 31.67 mmol/L
  CHLORIDE: 102.67 MEQ/L
  CHOLESTEROL: 68 mg/dL
  CREATININE: 0.19 mg/dL
  GLUCOSE: 160.67 mg/dL
  LACTATE DEHYDROGENASE: 181.33 u/L
  LIPASE: 9.33 u/L
  PHOSPHORUS: 11.9 mg/dL
  POTASSIUM: 5.74 MEQ/L
  SODIUM: 150.1 MEQ/L
  TOTAL BILIRUBIN: 0.2 mg/dL
  TOTAL PROTEIN: 6.07 G/DL
  URIC ACID: 1.8 mg/dL
Rattus norvegicus [1]; […], time 14 day
  ABSOLUTE BASOPHIL: 0 CELLS/uL
  ABSOLUTE EOSINOPHIL: 209.6 CELLS/uL
  ABSOLUTE LYMPHOCYTE: 11694.6 CELLS/uL
  ABSOLUTE MONOCYTE: 390 CELLS/uL
  ABSOLUTE SEGMENTED NEUTROPHIL: 1365.8 CELLS/uL
  BASOPHIL: 0%
  EOSINOPHIL: 1.4%
  ERYTHROCYTE COUNT: 6.07 x10E6/uL
  HEMATOCRIT: 35.18%
  HEMOGLOBIN: 13 G/DL
  LEUKOCYTE COUNT: 13.86 x10E3/uL
  LYMPHOCYTE: 85.2%
  MEAN CORPUSCULAR HEMOGLOBIN: 21.48 pg
  MEAN CORPUSCULAR HEMOGLOBIN CONCENTRATION: 37 G/DL
  MEAN CORPUSCULAR VOLUME: 58.06 fL
  MONOCYTE: 3%
  NEUTROPHIL: 10.4%
  NUCLEATED RED BLOOD CELLS: 0 /100WBC
  PLATELET COUNT: 916.8 x10E3/uL
  ALANINE AMINOTRANSFERASE: 59 u/L
  ALBUMIN: 4.22 G/DL
  ALKALINE PHOSPHATASE: 464.4 u/L
  ASPARTATE AMINOTRANSFERASE: 88.8 u/L
  BLOOD UREA NITROGEN: 16 mg/dL
  CARBON DIOXIDE: 28.4 mmol/L
  CHLORIDE: 102.2 MEQ/L
  CHOLESTEROL: 70.2 mg/dL
  CREATININE: 0.16 mg/dL
  GLUCOSE: 130.8 mg/dL
  LACTATE DEHYDROGENASE: 283.8 u/L
  LIPASE: 10.2 u/L
  PHOSPHORUS: 11.26 mg/dL
  POTASSIUM: 6.64 MEQ/L
  SODIUM: 147.56 MEQ/L
  TOTAL BILIRUBIN: 0.28 mg/dL
  TOTAL PROTEIN: 6.16 G/DL
  URIC ACID: 1.56 mg/dL
Rattus norvegicus [2]; tissue Blood
  ABSOLUTE EOSINOPHIL: 0 CELLS/uL
  ABSOLUTE LYMPHOCYTE: 9295.67 CELLS/uL
  ABSOLUTE MONOCYTE: 616 CELLS/uL
  ABSOLUTE SEGMENTED NEUTROPHIL: 1621.67 CELLS/uL
  BASOPHIL: 0%
  EOSINOPHIL: 0%
  ERYTHROCYTE COUNT: 6.3 x10E6/uL
  HEMATOCRIT: 39.37%
  HEMOGLOBIN: 14.03 G/DL
  LEUKOCYTE COUNT: 11.53 x10E3/uL
  LYMPHOCYTE: 80.67%
  MEAN CORPUSCULAR HEMOGLOBIN: 22.3 pg
  MEAN CORPUSCULAR HEMOGLOBIN CONCENTRATION: 35.67 G/DL
  MEAN CORPUSCULAR VOLUME: 62.53 fL
  MONOCYTE: 5.33%
  NEUTROPHIL: 14%
  NUCLEATED RED BLOOD CELLS: 0 /100WBC
  PLATELET COUNT: 1230.33 x10E3/uL
Rattus norvegicus [2]; tissue Plasma
  ALANINE AMINOTRANSFERASE: 176 u/L
  ALBUMIN: 4.43 G/DL
  ALKALINE PHOSPHATASE: 416.33 u/L
  ASPARTATE AMINOTRANSFERASE: 280 u/L
  BLOOD UREA NITROGEN: 20 mg/dL
  CARBON DIOXIDE: 28.67 mmol/L
  CHLORIDE: 99.33 MEQ/L
  CHOLESTEROL: 69.67 mg/dL
  CREATININE: 0.23 mg/dL
  GLUCOSE: 154.33 mg/dL
  LACTATE DEHYDROGENASE: 419.67 u/L
  LIPASE: 10.67 u/L
  PHOSPHORUS: 12.9 mg/dL
  POTASSIUM: 5.56 MEQ/L
  SODIUM: 146.57 MEQ/L
  TOTAL BILIRUBIN: 0.23 mg/dL
  TOTAL PROTEIN: 6.53 G/DL
  URIC ACID: 1.4 mg/dL
